Target: Ciona intestinalis Ci-VSP cytoplasmic domain (phosphatase domain, residues 248-576 of Ci-VSP, SEQ ID NO: 2), wild type, GST fusion protein (GST-Ci-VSP) (Ciona intestinalis, UniProt Q4W8A1)
Assay: Malachite green assay of phosphoinositide phosphatase activity at various PIP3 concentrations, Michaelis-Menten fit
Type: biochemical
Details: substrate PIP3, initial rate V0 at t=0, Michaelis-Menten fit (FIG. 4c)
Protocol: To express N-terminal fused protein of the cytoplasmic domain of Ci-VSP with the GST gene, the cDNA encoding residues 248-576 of Ci-VSP was subcloned into the EcoRI-XhoI site of pGEX4T3 (Amersham Pharmacia). GST-fused protein was expressed and purified from E. coli JM109 with glutathione-sepharose CL-4B (Amersham Pharmacia). Phosphatase activity of Ci-VSP was measured with the methods previously adopted for PTEN phosphatase.
To see whether the Ci-VSP has phosphatase activity that uses PI(3, 4, 5)P3 as a substrate, a fusion protein of GST and the whole C-terminal cytoplasmic region of Ci-VSP was synthesized. FIG. 3b represents phosphoinositide phosphatase activity of the fusion protein of glutathione s-transferase and the phosphatase-like domain of Ci-VSP by a malachite green assay using PI(3, 4, 5)P3 as a substrate. […] BIOMOL GREEN™ reagent (Biomol, Plymouth Meeting, Pa.) was added to the sample and […] was measured by using H2O as a reference. […]
Enzyme activity of Ci-VSP was examined with thin layer chromatography (TLC). […] Where there is enzyme activity using PI(3, 4, 5)P3 as a substrate, the degraded product PIP2(NBD6-diC6-PI(4, 5)P2) is detected. […]
Malachite green imparts pale yellow in the absence of inorganic phosphate. […] Thus, by measuring absorbance of malachite green at 620 nm, the inorganic phosphate that is generated by the degradation of PI(3, 4, 5)P3 to PI(4, 5)P2 can be quantified. […]

Sequence of Ciona intestinalis Ci-VSP cytoplasmic domain (phosphatase domain, residues 248-576 of Ci-VSP, SEQ ID NO: 2), wild type, GST fusion protein (GST-Ci-VSP) (Q4W8A1 entry or part of it): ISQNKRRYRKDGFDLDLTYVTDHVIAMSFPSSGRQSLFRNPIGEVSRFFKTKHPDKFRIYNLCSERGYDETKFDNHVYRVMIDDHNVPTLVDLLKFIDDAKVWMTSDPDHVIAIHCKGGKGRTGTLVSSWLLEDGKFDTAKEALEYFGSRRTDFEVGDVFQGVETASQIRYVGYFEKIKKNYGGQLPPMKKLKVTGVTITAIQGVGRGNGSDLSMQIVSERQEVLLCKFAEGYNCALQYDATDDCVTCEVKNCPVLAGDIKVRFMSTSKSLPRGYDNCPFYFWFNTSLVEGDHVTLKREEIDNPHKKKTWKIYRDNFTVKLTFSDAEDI

PIP3
Vmax (maximum rate): 0.292 nmol/min/µg | Km (read-out: Km (substrate concentration required for 1/2 Vmax)): 36 µM

From patent publication US7592424B2, “Ion channel-like polypeptide and use thereof” (Kyoto University, priority 2004, dated 2009)
